Experimental data taken from patent publication US11634417B2 (Array BioPharma Inc., priority 2019, dated 2023).
pIC50: −log10 of the molar value. Structures can show the parent of a compound that is named as a salt.

Experiments:
[1] = system: ERK1/2 (Thr202/Tyr204) phosphorylation in KYSE520 cells; assay: Cellular Phospho-p44/42 MAPK (Erk1/2) (Thr202/Tyr204) assay, In-Cell Western; type: cell-based; details: Homo sapiens, KYSE-520; KYSE520 cells, 1 hour incubation, pERK signal normalized to GAPDH; single assay or mean of multiple assays; read-out: Biological Example 2 IC50
Experimental: Inhibition of ERK1/2 (Thr202/Tyr204) phosphorylation was determined by the following cellular assay, which comprises incubating cells with a compound for 1 hour and quantifying pERK signal by In-Cell Western on fixed cells and normalizing to GAPDH signal. KYSE520 cells were obtained from DSMZ and grown in RPMI supplemented with 10% fetal bovine serum, penicillin/streptomycin, 2 mM L-alanyl-L-glutamine dipeptide in 0.85% NaCl (Glutamax™), non-essential amino acids, and sodium pyruvate. Cells were plated in 96-well plates at 30,000 cells/well and allowed to attach overnight at 37° C./5% CO2. Cells were treated with compounds prepared as a 10-point, 1:3 dilution series (range: 20 μM-1 nM), with a final DMSO concentration of 0.5%. After 1 hour incubation, cells were fixed in 3.7% formaldehyde in Dulbecco's phosphate-buffered saline (“dPBS”) at room temperature for 20 minutes. Cells were then washed with dPBS and permeabilized in 100% MeOH at room temperature for 10 minutes. Following permeabilization, cells were washed in dPBS and incubated in LI-COR Blocking Buffer (LI-COR Biosciences, Cat #927-40000) for 1 hour or longer. Plates were then incubated with an antibody specific for the MEK-dependent ERK1/2 phosphorylation sites, threonine 202 and tyrosine 204 (Cell Signaling Technologies; Cat #9101), downstream of SHP2 in the MAP kinase signal transduction pathway, as well as GAPDH (Millipore; Cat #MAB374). pErk1/2 (Thr202/Tyr204) antibody was diluted in LI-COR blocking buffer containing 0.05% polysorbate-20 (Tween-20) at 1:250; GAPDH was diluted at 1:2,500. The plates were incubated overnight at 4° C. After washing with PBS/0.05% Tween-20, the cells were incubated with fluorescently-labeled secondary antibodies (Anti-rabbit-Alexa Flour680, Invitrogen Cat #A21109; Anti-mouse-IRDye800CW, Li-cor Bioscieces Cat #926-32210, both at 1:1000 dilution) for 1 hour. Cells were then washed, as above, and analyzed for fluorescence at both 680 nm and 800 nm wavelengths using the Aerius Infrared Imaging System (LI-COR Biosciences, Model 9250). Phosphorylated Erk1/2 ([…]) signal was normalized to GAPDH signal for each well. IC50 values were calculated from the normalized values using a 4-parameter fit in BioAssay software. The reported IC50 in Table 2 may be from a single assay or the mean of multiple assays.

full-length SHP2 = biological target: T1, full-length SHP2 (Homo sapiens, UniProt Q06124); assay: SHP2 enzymatic assay (fluorescence intensity kinetic assay, DiFMUP hydrolysis); type: biochemical; details: 1 nM His6-tagged SHP2(2-527), 1 μM activating peptide, 50 μM DiFMUP; single assay or mean of multiple assays; read-out: Biological Example 1 IC50
T1 construct: 1 nM full-length SHP2 (His6-tagged SHP2(2-527), recombinantly expressed in E. coli and purified in-house); His6; made in house; host or cells: E. coli
T1 sequence (Q06124 2-527): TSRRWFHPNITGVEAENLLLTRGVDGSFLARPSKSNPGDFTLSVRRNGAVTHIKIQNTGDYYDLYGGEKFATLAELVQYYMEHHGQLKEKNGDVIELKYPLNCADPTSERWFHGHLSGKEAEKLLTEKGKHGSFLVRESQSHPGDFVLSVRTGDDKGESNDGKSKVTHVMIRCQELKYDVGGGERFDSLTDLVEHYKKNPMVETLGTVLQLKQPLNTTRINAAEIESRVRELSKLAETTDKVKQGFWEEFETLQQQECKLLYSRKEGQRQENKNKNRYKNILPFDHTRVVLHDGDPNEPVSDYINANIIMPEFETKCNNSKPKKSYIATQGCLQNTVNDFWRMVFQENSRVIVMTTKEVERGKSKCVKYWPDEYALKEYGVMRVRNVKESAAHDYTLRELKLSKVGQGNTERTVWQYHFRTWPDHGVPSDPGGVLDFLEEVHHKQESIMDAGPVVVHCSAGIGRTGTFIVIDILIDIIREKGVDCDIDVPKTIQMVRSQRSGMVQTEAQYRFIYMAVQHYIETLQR
Experimental: A fluorescence intensity kinetic assay was configured for full-length SHP2 that monitors the amount of 6,8-difluoro-7-hydroxy-4-methylcoumarin (“DiFMU”) formed upon hydrolysis of 6,8-difluoro-4-methylumbelliferyl phosphate (“DiFMUP”) by SHP2. […] Low control wells lacked enzyme. The assays were initiated by the addition of a mixture of SHP2 and the activating peptide, and following a 15 second mix on an orbital shaker, were read in kinetic mode for 15 minutes (30 seconds/cycle) at ambient temperature on a PerkinElmer EnVision microplate reader (kEx=355 nm, kEm=460 nm). Initial velocities (slopes of the tangents at t=0) were estimated from exponential fits to the slightly nonlinear progress curves and then were converted to percent of control (“POC”) using the following equation:
[formula] • Where: xmax Average Uninhibited Controls • Xmin Average Background A 4-parameter logistic model was the fit to the POC data for each compound. From that fit, the IC50 was estimated and is defined as the concentration of compound at which the curve crosses 50 POC.

pIC50 (full-length SHP2) | Compound | pIC50 [1]
7.60 | Nc1nccc(Sc2cnc(N3CCC4(CC3)Cc3cc(Cl)ccc3[C@H]4N)nn2)c1Cl [Example 17, (S)-1′-(6-((2-amino-3-chloropyridin-4-yl)thio)-1,2,4-triazin-3-yl)-5-chloro-1,3-dihydrospiro[indene-2,4′-piperidin]-1-amine] | 8.05
7.82 | Nc1cc(Sc2cnc(N3CCC4(CC3)Cc3ccccc3[C@H]4N)nn2)c(Cl)cn1 [Example 18, (S)-1′-(6-((2-amino-5-chloropyridin-4-yl)thio)-1,2,4-triazin-3-yl)-1,3-dihydrospiro[indene-2,4′-piperidin]-1-amine] | 8.10
7.36 | Nc1nccc(Sc2cnc(N3CCC4(CC3)Cc3ccccc3[C@H]4N)nn2)c1C1CC1 [Example 19, (S)-1′-(6-((2-amino-3-cyclopropylpyridin-4-yl)thio)-1,2,4-triazin-3-yl)-1,3-dihydrospiro[indene-2,4′-piperidin]-1-amine] | 6.68
7.33 | Nc1nccc(Sc2cnc(N3CCC4(CC3)Cc3ncccc3[C@H]4N)nn2)c1Cl [Example 24, (S)-1′-(6-((2-amino-3-chloropyridin-4-yl)thio)-1,2,4-triazin-3-yl)-5,7-dihydrospiro[cyclopenta[b]pyridine-6,4′-piperidin]-5-amine] | 8.30
7.59 | N[C@@H]1c2ccccc2CC12CCN(c1ncc(Sc3ccnc4c3C(F)(F)C(=O)N4)nn1)CC2 [Example 25, (S)-4-((3-(1-amino-1,3-dihydrospiro[indene-2,4′-piperidin]-1′-yl)-1,2,4-triazin-6-yl)thio)-3,3-difluoro-1,3-dihydro-2H-pyrrolo[2,3-b]pyridin-2-one] | 8.70
7.31 | N[C@@H]1c2ccccc2CC12CCN(c1ncc(Sc3c[nH]c4ncccc34)nn1)CC2 [Example 26, (S)-1′-(6-((1H-pyrrolo[2,3-b]pyridin-3-yl)thio)-1,2,4-triazin-3-yl)-1,3-dihydrospiro[indene-2,4′-piperidin]-1-amine] | 6.92
7.77 | N[C@@H]1c2ccccc2CC12CCN(c1ncc(Sc3n[nH]c4ncccc34)nn1)CC2 [Example 27, (S)-1′-(6-((1H-pyrazolo[3,4-b]pyridin-3-yl)thio)-1,2,4-triazin-3-yl)-1,3-dihydrospiro[indene-2,4′-piperidin]-1-amine] | 7.96
7.66 | N[C@@H]1c2ccccc2CC12CCN(c1ncc(Sc3ccnc4[nH]ccc34)nn1)CC2 [Example 30, (S)-1′-(6-((1H-pyrrolo[2,3-b]pyridin-4-yl)thio)-1,2,4-triazin-3-yl)-1,3-dihydrospiro[indene-2,4′-piperidin]-1-amine] | 8.70

The remaining lines, values behind:

Compound | pIC50 (full-length SHP2) | pIC50 [1]
C[C@@H]1OCC2(CCN(c3ncc(Sc4c(Cl)cnc5[nH]ccc45)nn3)CC2)[C@@H]1N [Example 9, (3S,4S)-8-(6-((5-chloro-1H-pyrrolo[2,3-b]pyridin-4-yl)thio)-1,2,4-triazin-3-yl)-3-methyl-2-oxa-8-azaspiro[4.5]decan-4-amine] | 6.45 | 6.16
CC1(N)CCCN(c2ncc(Sc3ccnc(N)c3Cl)nn2)CC1 (stereo not drawn) [Example 10, 1-(6-((2-amino-3-chloropyridin-4-yl)thio)-1,2,4-triazin-3-yl)-4-methylazepan-4-amine] | 6.26 | 6.16
CC1(N)CCCN(c2ncc(Sc3cccc(Cl)c3Cl)nn2)CC1 (stereo not drawn) [Example 11, 1-(6-((2,3-dichlorophenyl)thio)-1,2,4-triazin-3-yl)-4-methylazepan-4-amine] | 6.68 | 5.71
NC1C[C@@H]2CC[C@@H](C1)N2c1ncc(Sc2cccc(Cl)c2Cl)nn1 (stereo partly drawn) [Example 12, (1R,3s,5S)-8-(6-((2,3-dichlorophenyl)thio)-1,2,4-triazin-3-yl)-8-azabicyclo[3.2.1]octan-3-amine] | 6.76 | 5.95
Cc1nc(N2CCC3(CC2)CO[C@@H](C)[C@H]3N)nnc1Sc1cccc(Cl)c1Cl [Example 13, (3S,4S)-8-(6-((2,3-dichlorophenyl)thio)-5-methyl-1,2,4-triazin-3-yl)-3-methyl-2-oxa-8-azaspiro[4.5]decan-4-amine] | 6.85 | 5.99
Cc1nccc(Sc2cnc(N3CCC4(CC3)CO[C@@H](C)[C@H]4N)nn2)c1Cl [Example 14, (3S,4S)-8-(6-((3-chloro-2-methylpyridin-4-yl)thio)-1,2,4-triazin-3-yl)-3-methyl-2-oxa-8-azaspiro[4.5]decan-4-amine] | 7.28 | 7.21
Nc1nccc(Sc2cnc(N3CCC4(CC3)Cc3ncccc3[C@@H]4N)nn2)c1Cl [Example 16, (R)-1′-(6-((2-amino-3-chloropyridin-4-yl)thio)-1,2,4-triazin-3-yl)-5,7-dihydrospiro[cyclopenta[b]pyridine-6,4′-piperidin]-5-amine trihydrochloride] | 6.76 | 7.31
Nc1ccc(Oc2cnc(N3CCC4(CC3)Cc3ccccc3[C@H]4N)nn2)cn1 [Example 22, (S)-1′-(6-((6-aminopyridin-3-yl)oxy)-1,2,4-triazin-3-yl)-1,3-dihydrospiro[indene-2,4′-piperidin]-1-amine] | 7.49 | 7.77
Nc1nccc(Sc2cnc(N3CCC4(CC3)Oc3ccccc3[C@H]4N)nn2)c1Cl [Example 23, (R)-1′-(6-((2-amino-3-chloropyridin-4-yl)thio)-1,2,4-triazin-3-yl)-3H-spiro[benzofuran-2,4′-piperidin]-3-amine] | 7.46 | 7.92
N[C@@H]1c2ccccc2CC12CCN(c1ncc(Oc3cccc4cnccc34)nn1)CC2 [Example 28, (S)-1′-(6-(isoquinolin-5-yloxy)-1,2,4-triazin-3-yl)-1,3-dihydrospiro[indene-2,4′-piperidin]-1-amine] | 6.06 | 5.94
C[C@@H]1OCC2(CCN(c3ncc(Sc4ccnc5c4ccn5C)nn3)CC2)[C@@H]1N [Example 29, (3S,4S)-3-methyl-8-(6-((1-methyl-1H-pyrrolo[2,3-b]pyridin-4-yl)thio)-1,2,4-triazin-3-yl)-2-oxa-8-azaspiro[4.5]decan-4-amine] | 7.02 | 6.69
N[C@@H]1c2ccccc2CC12CCN(c1ncc(-c3ccccc3Cl)nn1)CC2 [Example 31, (S)-1′-(6-(2-chlorophenyl)-1,2,4-triazin-3-yl)-1,3-dihydrospiro[indene-2,4′-piperidin]-1-amine] | 7.64 | 6.37
N[C@@H]1c2ccccc2CC12CCN(c1ncc(Sc3ccccc3)nn1)CC2 [Example 32, (S)-1′-(6-(phenylthio)-1,2,4-triazin-3-yl)-1,3-dihydrospiro[indene-2,4′-piperidin]-1-amine] | 8.30 | 7.85
